{"source": "patent US20030180228A1", "about": "“Aerosol container for formulations of salmeterol xinafoate” (priority 2000, published 2003)", "key": {"[1]": {"assay": "Water content of salmeterol xinafoate HFA 134a canisters on storage, ex-valve Karl-Fischer", "type": "physicochemical", "procedure": "The water content of the formulation may be determined by conventional Karl Fischer methodology. Typically this involves measuring the total water content of the formulation ex-valve using Couliometric titration.\n(§1) In the experiments below canisters were stored in an inverted orientation. Valves all had 63 μl metering volume. Water content was measured ex-valve using Karl-Fischer methodology.\n(§2) Aluminium canisters fitted with Valois D60 valve and containing 12 g HFA 134a and 6.53 mg salmeterol xinafoate were stored under various conditions of temperature and humidity and the moisture content measured and FPM measured (Andersen Cascade Impactor), with results as follows:\n(§3) Aluminium canisters fitted with Valois DF60 valve and containing 12g HFA 134a and 6.53 mg salmeterol xinafoate were stored under various conditions of temperature and humidity and the moisture content measured and FPM measured (Andersen Cascade Impactor), with results as follows:\n(§4) Aluminium canisters fitted with Bespak valve and containing […] and 6.53 mg salmeterol xinafoate were stored under various conditions of temperature and humidity and the moisture content measured and FPM measured (Andersen Cascade Impactor), with results as follows:\n(§5) Aluminium canisters fitted with Valois DF60 valve and containing 12g HFA134a and 6.53 mg salmeterol xinafoate were stored under various conditions of temperature and humidity and the moisture content measured and FPM measured (Andersen Cascade Impactor), with results as follows: […]"}, "[2]": {"assay": "Fine particle mass (FPM) by Andersen Cascade Impactor on storage, section A canisters", "type": "physicochemical", "procedure": "The FPM of an actuation from an MDI can be calculated based on, for example, the sum of the amount of drug substance deposited on stages 3, 4 and 5 of an Andersen Cascade Impaction stack as determined by standard HPLC analysis.\nas §1, §2, §3, §4, §5"}, "[3]": {"conditions": "(iii) Valois D60 valve, 30° C./60% RH, 3 months"}, "[4]": {"conditions": "(iii) Valois D60 valve, 40° C./75% RH, 1 month"}, "[5]": {"conditions": "(iii) Valois D60 valve, 40° C./75% RH, 3 months"}, "[6]": {"conditions": "(iii) Valois D60 valve, 40° C./75% RH, Initial"}, "[7]": {"conditions": "(iv) Valois DF60 valve, 25° C./60% RH, 1 month"}, "[8]": {"conditions": "(iv) Valois DF60 valve, 25° C./60% RH, 3 months"}, "[9]": {"conditions": "(iv) Valois DF60 valve, 25° C./60% RH, 6 month"}, "[10]": {"conditions": "(iv) Valois DF60 valve, 25° C./60% RH, Initial"}, "[11]": {"conditions": "(iv) Valois DF60 valve, 25° C./75% RH, 1 month"}, "[12]": {"conditions": "(iv) Valois DF60 valve, 25° C./75% RH, 3 months"}, "[13]": {"conditions": "(iv) Valois DF60 valve, 25° C./75% RH, 6 month"}, "[14]": {"conditions": "(iv) Valois DF60 valve, 25° C./75% RH, Initial"}, "[15]": {"conditions": "(iv) Valois DF60 valve, 40° C./75% RH, 1 month"}, "[16]": {"conditions": "(iv) Valois DF60 valve, 40° C./75% RH, 3 months"}, "[17]": {"conditions": "(iv) Valois DF60 valve, 40° C./75% RH, 6 month"}, "[18]": {"conditions": "(v) Bespak valve, 40° C./75% RH, 3 months"}, "[19]": {"conditions": "(vi) Valois DF60 valve, 40° C./75% RH, 3 months"}, "[20]": {"conditions": "(vii) Valois DF60 valve, 40° C./75% RH, 3 months"}}, "data": [{"smiles": "OCc1cc(C(O)CNCCCCCCOCCCCc2ccccc2)ccc1O", "note": "(stereo not drawn) [salmeterol xinafoate, 4-Hydroxy-α^1-[[[6-(4-phenylbutoxy)hexyl]amino]methyl]-1,3-benzenedimethanol]", "values": [{"measurement": "Water content", "setting": "[1]; (iii) Valois D60 valve, 6.53 mg in 12 g HFA 134a, 30° C./60% RH, Initial", "result": 92, "unit": "ppm"}, {"measurement": "Water content", "setting": "[1]; [3]", "result": 463, "unit": "ppm"}, {"measurement": "Water content", "setting": "[1]; [4]", "result": 412, "unit": "ppm"}, {"measurement": "Water content", "setting": "[1]; [5]", "result": 616, "unit": "ppm"}, {"measurement": "Water content", "setting": "[1]; [6]", "result": 92, "unit": "ppm"}, {"measurement": "Water content", "setting": "[1]; (iv) Valois DF60 valve, 6.53 mg in 12 g HFA 134a, 40° C./75% RH, Initial", "result": 81, "unit": "ppm"}, {"measurement": "Water content", "setting": "[1]; [7]", "result": 194, "unit": "ppm"}, {"measurement": "Water content", "setting": "[1]; [8]", "result": 405, "unit": "ppm"}, {"measurement": "Water content", "setting": "[1]; [9]", "result": 446, "unit": "ppm"}, {"measurement": "Water content", "setting": "[1]; [10]", "result": 81, "unit": "ppm"}, {"measurement": "Water content", "setting": "[1]; [11]", "result": 217, "unit": "ppm"}, {"measurement": "Water content", "setting": "[1]; [12]", "result": 434, "unit": "ppm"}, {"measurement": "Water content", "setting": "[1]; [13]", "result": 485, "unit": "ppm"}, {"measurement": "Water content", "setting": "[1]; [14]", "result": 81, "unit": "ppm"}, {"measurement": "Water content", "setting": "[1]; [15]", "result": 360, "unit": "ppm"}, {"measurement": "Water content", "setting": "[1]; [16]", "result": 540, "unit": "ppm"}, {"measurement": "Water content", "setting": "[1]; [17]", "result": 526, "unit": "ppm"}, {"measurement": "Water content", "setting": "[1]; (v) Bespak valve, 6.53 mg in HFA 134a, 40° C./75% RH, Initial", "result": 118, "unit": "ppm"}, {"measurement": "Water content", "setting": "[1]; [18]", "result": 457, "unit": "ppm"}, {"measurement": "Water content", "setting": "[1]; (vi) Valois DF60 valve, 6.53 mg in 12 g HFA 134a, 40° C./75% RH, Initial", "result": 213, "unit": "ppm"}, {"measurement": "Water content", "setting": "[1]; [19]", "result": 746, "unit": "ppm"}, {"measurement": "Water content", "setting": "[1]; (vii) Valois DF60 valve, 6.53 mg in 12 g HFA134a, 40° C./75% RH, Initial", "result": 181, "unit": "ppm"}, {"measurement": "Water content", "setting": "[1]; [20]", "result": 668, "unit": "ppm"}, {"measurement": "FPM", "setting": "[2]; [3]", "result": 7.9, "unit": "µg"}, {"measurement": "FPM", "setting": "[2]; (iii) Valois D60 valve, 30° C./60% RH, Initial", "result": 10.3, "unit": "µg"}, {"measurement": "FPM", "setting": "[2]; [4]", "result": 8.2, "unit": "µg"}, {"measurement": "FPM", "setting": "[2]; [5]", "result": 6.2, "unit": "µg"}, {"measurement": "FPM", "setting": "[2]; [6]", "result": 10.3, "unit": "µg"}, {"measurement": "FPM", "setting": "[2]; [7]", "result": 8.4, "unit": "µg"}, {"measurement": "FPM", "setting": "[2]; [8]", "result": 8.3, "unit": "µg"}, {"measurement": "FPM", "setting": "[2]; [9]", "result": 7.5, "unit": "µg"}, {"measurement": "FPM", "setting": "[2]; [10]", "result": 9.4, "unit": "µg"}, {"measurement": "FPM", "setting": "[2]; [11]", "result": 8.4, "unit": "µg"}, {"measurement": "FPM", "setting": "[2]; [12]", "result": 8.0, "unit": "µg"}, {"measurement": "FPM", "setting": "[2]; [13]", "result": 7.2, "unit": "µg"}, {"measurement": "FPM", "setting": "[2]; [14]", "result": 9.4, "unit": "µg"}, {"measurement": "FPM", "setting": "[2]; [15]", "result": 7.8, "unit": "µg"}, {"measurement": "FPM", "setting": "[2]; [16]", "result": 6.0, "unit": "µg"}, {"measurement": "FPM", "setting": "[2]; [17]", "result": 6.2, "unit": "µg"}, {"measurement": "FPM", "setting": "[2]; (iv) Valois DF60 valve, 40° C./75% RH, Initial", "result": 9.4, "unit": "µg"}, {"measurement": "FPM", "setting": "[2]; [18]", "result": 7.0, "unit": "µg"}, {"measurement": "FPM", "setting": "[2]; (v) Bespak valve, 40° C./75% RH, Initial", "result": 11.3, "unit": "µg"}, {"measurement": "FPM", "setting": "[2]; [19]", "result": 6.7, "unit": "µg"}, {"measurement": "FPM", "setting": "[2]; (vi) Valois DF60 valve, 40° C./75% RH, Initial", "result": 9.5, "unit": "µg"}, {"measurement": "FPM", "setting": "[2]; [20]", "result": 7.4, "unit": "µg"}, {"measurement": "FPM", "setting": "[2]; (vii) Valois DF60 valve, 40° C./75% RH, Initial", "result": 9.6, "unit": "µg"}]}]}
